Test [1] addresses human A2a receptors (HEK 293 transfected) (Homo sapiens (Human), UniProt P29274). Kind of test: Inhibition of cAMP release in HEK-A2aR cells (HTRF, LANCE Ultra cAMP). The class given is cell-based. The conditions noted are these: 3 nM NECA, 10 min. On the procedure: Functional activity was measured by inhibition of cAMP release in HEK cells (see below for further details).
To screen A2a receptor inhibitors by HTRF technology, about 500 HEK-A2aR cells (HEK 293 transfected with human A2a receptors) were treated with inhibitors in presence of stimulation buffer (1×HBSS, 5 mM HEPES, 0.1% BSA stabilizer, pH 7.4) supplemented with 30 μM phosphodiesterase inhibitor Rolipram (to prevent cAMP degradation). This stimulation was immediately followed by treatment with 3 nM standard A2aR agonist (NECA) for 10 min under gentle shaking at room temperature. After that, inhibition of cAMP release was determined directly using LANCE Ultra cAMP assay (Perkin Elmer TRF0263).
All analysis was performed using GraphPad Prism 7.0 (GraphPad Software, San Diego, USA). Results are given, as EC50 (M).
(In TR-FRET formats the signal depends on donor and acceptor labels being close together.)

Test [2] deals with human adenosine receptor sub-type A2a (wild type) (Homo sapiens (Human), UniProt P29274). The test is described as follows: Affinity for human adenosine A2a receptor by surface plasmon resonance (SPR). The format is binding. On the procedure:
(§1) Affinity for the human adenosine receptor sub-types (A2a, A2b, A1 and A3) was determined by surface plasmon resonance (SPR) using published methodologies (see below for further details).
(§2) Affinity for the human adenosine receptor sub-types (A2a, A2b, A1 and A3) was determined by SPR as described in Aristotelous, T., et al, Methods in Enzymology (2015), Volume 556, Chapter 23, pages 499-525 and Congreve, M., et al, J Med Chem (2012), Vol. 55, pages 1898-1903. The method used was analogous to the method used in Congreve, M., et al (see supplementary page S10) for the A2a receptor, but the wild type receptor was used rather than the proprietary StaR form.
(Surface plasmon resonance follows binding to a sensor surface in real time, without labels.)

For test [3], the target named is human adenosine receptor sub-type A2b (Homo sapiens (Human), UniProt P29275). The test is described as follows: Affinity for human adenosine A2b receptor by SPR. The format is binding. On the procedure:
as §1, §2

Test [4] addresses human adenosine receptor sub-type A3 (Homo sapiens (Human), UniProt P0DMS8). The test is described as follows: Affinity for human adenosine A3 receptor by SPR. The class given is binding. On the procedure:
as §1, §2

The target of test [5] is human adenosine receptor sub-type A1 (Homo sapiens (Human), UniProt P30542). Kind of test: Affinity for human adenosine A1 receptor by SPR. The format is binding. On the procedure: as §1, §2
[6] abbreviates: from SPR IC50 values, rounded to 2 significant figures.

human adenosine receptor sub-type A2a (wild type), sequence (P29274 whole entry): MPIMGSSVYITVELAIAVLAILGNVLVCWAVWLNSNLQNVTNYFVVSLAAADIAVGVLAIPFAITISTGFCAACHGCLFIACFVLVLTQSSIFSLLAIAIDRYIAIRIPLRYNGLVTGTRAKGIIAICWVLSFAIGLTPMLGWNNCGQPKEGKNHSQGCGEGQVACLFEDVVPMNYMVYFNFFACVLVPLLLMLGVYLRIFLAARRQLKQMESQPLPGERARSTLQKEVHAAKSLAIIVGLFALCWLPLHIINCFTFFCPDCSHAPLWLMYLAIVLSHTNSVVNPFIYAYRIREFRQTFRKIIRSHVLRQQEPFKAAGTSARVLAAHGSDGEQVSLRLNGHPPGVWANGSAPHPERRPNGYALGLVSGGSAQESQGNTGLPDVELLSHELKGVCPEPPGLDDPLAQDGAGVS
human A2a receptors (HEK 293 transfected), sequence (P29274 whole entry): as above
human adenosine receptor sub-type A2b, sequence (P29275 whole entry): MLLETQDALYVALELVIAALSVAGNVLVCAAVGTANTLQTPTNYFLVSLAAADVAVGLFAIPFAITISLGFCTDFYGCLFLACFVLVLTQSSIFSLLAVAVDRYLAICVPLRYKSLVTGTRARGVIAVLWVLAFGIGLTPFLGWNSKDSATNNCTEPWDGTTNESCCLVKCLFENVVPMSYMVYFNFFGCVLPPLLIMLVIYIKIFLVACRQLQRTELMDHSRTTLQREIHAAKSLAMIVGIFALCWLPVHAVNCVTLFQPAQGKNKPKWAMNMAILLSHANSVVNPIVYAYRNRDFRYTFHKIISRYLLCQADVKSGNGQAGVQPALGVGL
human adenosine receptor sub-type A3, sequence (P0DMS8 whole entry): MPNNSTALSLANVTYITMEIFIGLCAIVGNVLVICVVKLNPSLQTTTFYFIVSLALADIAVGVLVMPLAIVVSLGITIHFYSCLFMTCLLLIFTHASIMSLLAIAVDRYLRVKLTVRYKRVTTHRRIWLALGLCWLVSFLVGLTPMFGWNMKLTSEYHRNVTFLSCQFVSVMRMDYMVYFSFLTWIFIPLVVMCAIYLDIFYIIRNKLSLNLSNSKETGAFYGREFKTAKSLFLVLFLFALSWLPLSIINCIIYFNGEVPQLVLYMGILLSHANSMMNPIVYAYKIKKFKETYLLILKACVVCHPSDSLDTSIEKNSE
human adenosine receptor sub-type A1, sequence (P30542 whole entry): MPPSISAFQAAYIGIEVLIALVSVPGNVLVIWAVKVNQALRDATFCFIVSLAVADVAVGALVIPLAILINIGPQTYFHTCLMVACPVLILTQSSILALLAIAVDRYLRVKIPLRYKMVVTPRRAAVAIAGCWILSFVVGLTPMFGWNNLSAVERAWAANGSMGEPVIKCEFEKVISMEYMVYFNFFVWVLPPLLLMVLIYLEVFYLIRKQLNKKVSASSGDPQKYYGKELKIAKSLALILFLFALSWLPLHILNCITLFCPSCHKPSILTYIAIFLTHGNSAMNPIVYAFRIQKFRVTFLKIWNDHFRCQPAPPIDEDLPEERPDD

As usually defined, the EC50 is the concentration at which the effect is half-maximal. High values mean weaker potency, low ones greater potency. As a reminder, the IC50 is the concentration needed to halve the response being measured. Read a low IC50 as higher potency. On to `Nc1nc(-c2cnccn2)nc2nn(Cc3cccc(C(F)(F)F)c3)cc12` [Example 28, 6-(pyrazin-2-yl)-2-{[3-(trifluoromethyl)phenyl]methyl}-2H-pyrazolo[3,4-d]pyrimidin-4-amine], for which the response in test [1] was half-maximal at 13 nM (EC50). In addition, the IC50 in test [2] amounted to 3.2 nM.

`COc1cccc(Cn2cc3c(N)nc(-c4nc(C)cs4)nc3n2)c1` [Example 5, 2-[(3-methoxyphenyl)methyl]-6-(4-methyl-1,3-thiazol-2-yl)-2H-pyrazolo[3,4-d]pyrimidin-4-amine] returned an IC50 in test [2] of 47 nM.

`Nc1nc(-c2ccsn2)nc2nn(Cc3cccc(O)c3)cc12` [Example 42, 3-{[4-amino-6-(1,2-thiazol-3-yl)-2H-pyrazolo[3,4-d]pyrimidin-2-yl]methyl}phenol] yielded an IC50 in test [2] of 61 nM.

Turning to `Nc1nc(-c2ccsn2)nc2nn(Cc3cccc(CO)c3)cc12` [Example 46, [3-[(4-amino-6-(1,2-thiazol-3-yl)-pyrazolo[3,4-d]pyrimidin-2-yl)methyl]phenyl]methanol], the IC50 is over 100000 nM in test [3] (SPR, human A2b receptor); 37 nM in test [2]; over 100000 nM in test [4] (SPR, human A3 receptor); over 100000 nM in test [5] (SPR, human A1 receptor). The “Relative selectivity for A2a v. A2b” value in test [3] (setting [6]) is over 2700. Also, the “Relative selectivity for A2a v. A3” value in test [4] (setting [6]) is on record as over 2700. The “Relative selectivity for A2a v. A1” value in test [5] (setting [6]) is reported as over 2700.

As to `COc1cccc(Cn2cc3c(N)nc(-c4cc(C)no4)nc3n2)c1` [Example 6, 2-[(3-methoxyphenyl)methyl]-6-(3-methyl-1,2-oxazol-5-yl)-2H-pyrazolo[3,4-d]pyrimidin-4-amine], the IC50 in test [2] came to 162 nM.

`COc1cccc(Cn2cc3c(N)nc(-c4ncco4)nc3n2)c1` [Example 4, 2-[(3-methoxyphenyl)methyl]-6-(1,3-oxazol-2-yl)-2H-pyrazolo[3,4-d]pyrimidin-4-amine] gave an EC50 in test [1] of 400 nM. Besides, in test [2], the IC50 was found to be 4.9 nM.

Consider `COc1cccc(Cn2cc3c(N)nc(-c4cnccn4)nc3n2)c1` [Example 2, 2-[(3-methoxyphenyl)methyl]-6-(pyrazin-2-yl)-2H-pyrazolo[3,4-d]pyrimidin-4-amine], for which the concentration giving a half-maximal response (EC50) in test [1] is 1530 nM. In test [2], this molecule showed an IC50 of 6.7 nM.

Turning to `COc1cc(Cn2cc3c(N)nc(-c4ccsn4)nc3n2)ccc1C` [Example 18, 2-[(3-methoxy-4-methylphenyl)methyl]-6-(1,2-thiazol-3-yl)-2H-pyrazolo[3,4-d]pyrimidin-4-amine], the EC50 in test [1] turned out to be 218 nM. In addition, in test [2], the IC50 was determined as 18 nM.

`Nc1nc(-c2cnccn2)nc2nn(Cc3cccc(F)c3)cc12` [Example 30, 2-[(3-fluorophenyl)methyl]-6-(pyrazin-2-yl)-2H-pyrazolo[3,4-d]pyrimidin-4-amine]: the EC50 in test [1] was 232 nM. The same molecule registered an IC50 in test [2] of 8 nM.

With `COc1ccccc1Cn1cc2c(N)nc(-c3ncco3)nc2n1` [Example 39, 2-[(2-methoxyphenyl)methyl]-6-(1,3-oxazol-2-yl)-2H-pyrazolo[3,4-d]pyrimidin-4-amine], the EC50 in test [1] turned out to be 213 nM. This molecule yielded a half-maximal inhibitory concentration (IC50) in test [2] of 4.3 nM.

For `COc1ccc(Cn2cc3c(N)nc(-c4cnccn4)nc3n2)cc1` [Example 15, 2-[(4-methoxyphenyl)methyl]-6-(pyrazin-2-yl)-2H-pyrazolo[3,4-d]pyrimidin-4-amine], it took 253 nM to reach half-maximal inhibition in test [2] (IC50).

In the case of `Nc1nc(-c2ccsn2)nc2nn(Cc3cccc(OC(F)(F)F)c3)cc12` [Example 16, 6-(1,2-thiazol-3-yl)-2-{[3-(trifluoromethoxy)phenyl]methyl}-2H-pyrazolo[3,4-d]pyrimidin-4-amine], the midpoint of the response in test [1], the EC50, lay at 9 nM. In test [2], this molecule displayed an IC50 of 8.3 nM.

In turn, `Nc1nc(-c2ccsn2)nc2nn(Cc3nccs3)cc12` [Example 34, 2-[(1,3-thiazol-2-yl)methyl]-6-(1,2-thiazol-3-yl)-2H-pyrazolo[3,4-d]pyrimidin-4-amine] had an IC50 in test [2] of 67 nM.

In test [1], `Cc1ccccc1Cn1cc2c(N)nc(-c3cnccn3)nc2n1` [Example 31, 2-[(2-methylphenyl)methyl]-6-(pyrazin-2-yl)-2H-pyrazolo[3,4-d]pyrimidin-4-amine] returned an EC50 of 56 nM. Also, inhibition in test [2] was half-maximal at 5.7 nM (IC50).

As to `Nc1nc(-c2ccsn2)nc2nn(Cc3cccc(F)c3)cc12` [Example 29, 2-[(3-fluorophenyl)methyl]-6-(1,2-thiazol-3-yl)-2H-pyrazolo[3,4-d]pyrimidin-4-amine], in test [1], the EC50 is 118 nM. This molecule also displayed an IC50 in test [2] of 15 nM.

In test [2], `Cc1ccc(Cn2cc3c(N)nc(-c4ccsn4)nc3n2)cn1` [Example 23, 2-[(6-methylpyridin-3-yl)methyl]-6-(1,2-thiazol-3-yl)-2H-pyrazolo[3,4-d]pyrimidin-4-amine] returned an IC50 of 29 nM.

In the case of `COc1cccc(Cn2cc3c(N)nc(-c4snnc4C)nc3n2)c1` [Example 7, 2-[(3-methoxyphenyl)methyl]-6-(4-methyl-1,2,3-thiadiazol-5-yl)-2H-pyrazolo[3,4-d]pyrimidin-4-amine], the IC50 in test [2] was determined as 24 nM.

In turn, `Nc1nc(-c2cnccn2)nc2nn(Cc3cccc(O)c3)cc12` [Example 3, 3-{[4-amino-6-(pyrazin-2-yl)-2H-pyrazolo[3,4-d]pyrimidin-2-yl]methyl}phenol] registered an IC50 in test [2] of 41 nM.

The molecule `Cc1ccc(Cn2cc3c(N)nc(-c4nccs4)nc3n2)cc1` [Example 14, 2-[(4-methylphenyl)methyl]-6-(1,3-thiazol-2-yl)-2H-pyrazolo[3,4-d]pyrimidin-4-amine] registered an EC50 in test [1] of 54 nM. Besides, in test [2], half-maximal inhibition (IC50) required 14 nM.

In test [1], `Cc1ccccc1Cn1cc2c(N)nc(-c3ccsn3)nc2n1` [Example 32, 2-[(2-methylphenyl)methyl]-6-(1,2-thiazol-3-yl)-2H-pyrazolo[3,4-d]pyrimidin-4-amine] returned an EC50 of 14 nM. Besides, it took 10 nM to reach half-maximal inhibition in test [2] (IC50).

In turn, `Nc1nc(-c2ccsn2)nc2nn(Cc3ccc(C(F)(F)F)cc3)cc12` [Example 17, 6-(1,2-thiazol-3-yl)-2-{[4-(trifluoromethyl)phenyl]methyl}-2H-pyrazolo[3,4-d]pyrimidin-4-amine] returned an EC50 in test [1] of 226 nM. Moreover, the IC50 in test [2] is 54 nM.

In turn, `Nc1nc(-c2nccs2)nc2nn(Cc3nccs3)cc12` [Example 33, 6-(1,3-thiazol-2-yl)-2-[(1,3-thiazol-2-yl)methyl]-2H-pyrazolo[3,4-d]pyrimidin-4-amine] came in with a concentration giving a half-maximal response (EC50) in test [1] of 2160 nM. 27 nM corresponded to half-maximal inhibition in test [2] (IC50).

Take `Nc1nc(-c2cnccn2)nc2nn(Cc3cccc(Cl)c3)cc12` [Example 36, 2-[(3-chlorophenyl)methyl]-6-(pyrazin-2-yl)-2H-pyrazolo[3,4-d]pyrimidin-4-amine]: it took 30 nM to reach a half-maximal effect in test [1] (EC50). The IC50 in test [2] amounted to 1.5 nM.

`Nc1nc(-c2ccsn2)nc2nn(Cc3cc(Cl)ccc3Cl)cc12` [Example 20, 2-[(2,5-dichlorophenyl)methyl]-6-(1,2-thiazol-3-yl)-2H-pyrazolo[3,4-d]pyrimidin-4-amine] yielded an EC50 in test [1] of 145 nM. This molecule showed an IC50 in test [2] of 13 nM.

Turning to `COc1cccc(Cn2cc3c(N)nc(-c4cscn4)nc3n2)c1` [Example 9, 2-[(3-methoxyphenyl)methyl]-6-(1,3-thiazol-4-yl)-2H-pyrazolo[3,4-d]pyrimidin-4-amine], the concentration for a half-maximal effect (EC50) in test [1] came out at 875 nM. For the same molecule, the IC50 in test [2] was determined as 41 nM.

Regarding `COc1cc(C)ccc1Cn1cc2c(N)nc(-c3ccsn3)nc2n1` [Example 25, 2-[(2-methoxy-4-methylphenyl)methyl]-6-(1,2-thiazol-3-yl)-2H-pyrazolo[3,4-d]pyrimidin-4-amine], the EC50 in test [1] was 407 nM. In addition, the IC50 in test [2] turned out to be 18 nM.

Consider `Cc1cccc(Cn2cc3c(N)nc(-c4ncco4)nc3n2)c1` [Example 26, 2-[(3-methylphenyl)methyl]-6-(1,3-oxazol-2-yl)-2H-pyrazolo[3,4-d]pyrimidin-4-amine], for which the EC50 in test [1] came to 123 nM. The molecule also yielded an IC50 in test [2] of 2.8 nM.

Take `Nc1nc(-c2ccsn2)nc2nn(Cc3ccccn3)cc12` [Example 22, 2-[(pyridin-2-yl)methyl]-6-(1,2-thiazol-3-yl)-2H-pyrazolo[3,4-d]pyrimidin-4-amine]: in test [2], the IC50 turned out to be 27 nM.

`Cc1ccc(Cn2cc3c(N)nc(-c4ccsn4)nc3n2)cc1C` [Example 21, 2-[(3,4-dimethylphenyl)methyl]-6-(1,2-thiazol-3-yl)-2H-pyrazolo[3,4-d]pyrimidin-4-amine] had an EC50 in test [1] of 4 nM. In test [2], this molecule gave an IC50 of 5 nM.

The molecule `Cc1ccc(Cn2cc3c(N)nc(-c4ccsn4)nc3n2)cc1` [Example 13, 2-[(4-methylphenyl)methyl]-6-(1,2-thiazol-3-yl)-2H-pyrazolo[3,4-d]pyrimidin-4-amine] returned an EC50 in test [1] of 128 nM. This molecule also returned an IC50 in test [2] of 15 nM.

The record behind these values is patent US11786528B2, “Pyrazolopyrimidine compounds as adenosine receptor antagonists” (EXSCIENTIA LTD., priority 2018, dated 2023).
